Laboratory results taken from article PMC5218480 (PLoS ONE, 2017).

Tested on: MV-4-11 cells
Test: Gene expression microarray analysis (Affymetrix PrimeView) and GSEA
Type: cell-based, human
Parameters: RFU PODN (11730768_x_at) / Fold change /veh PODN (11730768_x_at) / RFU LINC00158 (11744669_a_at) / Fold change /veh LINC00158 (11744669_a_at) / RFU DUSP10 (11751237_a_at) / Fold change /veh DUSP10 (11751237_a_at) / RFU ID3 (11757404_x_at) / Fold change /veh ID3 (11757404_x_at) / RFU PLEKHG5 (11737974_s_at) / Fold change /veh PLEKHG5 (11737974_s_at) / RFU LRRC4B (11730491_at) / Fold change /veh LRRC4B (11730491_at) / RFU GIMAP4 (11747438_a_at) / Fold change /veh GIMAP4 (11747438_a_at) / RFU KRT8 (11758183_x_at) / Fold change /veh KRT8 (11758183_x_at) / RFU CNN1 (11734310_a_at) / Fold change /veh CNN1 (11734310_a_at) / RFU VPS37D (11726825_at) / Fold change /veh VPS37D (11726825_at) / RFU C10orf10 (11716522_x_at) / Fold change /veh C10orf10 (11716522_x_at) / RFU KIR2DL2 /// KIR2DL4 /// KIR2DL5A /// KIR2DL5B /// KIR2DS1 /// KIR2DS2 /// KIR2DS3 /// KIR2DS4 /// KIR3DL3 /// KIR3DL3 /// KIR3DS1 (11738374_at) / Fold change /veh KIR2DL2 /// KIR2DL4 /// KIR2DL5A /// KIR2DL5B /// KIR2DS1 /// KIR2DS2 /// KIR2DS3 /// KIR2DS4 /// KIR3DL3 /// KIR3DL3 /// KIR3DS1 (11738374_at) / RFU C1QL1 (11718748_at) / Fold change /veh C1QL1 (11718748_at) / RFU TMPRSS4 (11747572_a_at) / Fold change /veh TMPRSS4 (11747572_a_at) / RFU HAMP (11756126_x_at) / Fold change /veh HAMP (11756126_x_at) / RFU RNFT2 (11725882_a_at) / Fold change /veh RNFT2 (11725882_a_at) / RFU NR4A2 (11747474_a_at) / Fold change /veh NR4A2 (11747474_a_at) / RFU ABCC12 (11746883_a_at) / Fold change /veh ABCC12 (11746883_a_at) / RFU TMEM136 (11760407_x_at) / Fold change /veh TMEM136 (11760407_x_at) / RFU CLDN22 /// WWC2 (11732394_at) / Fold change /veh CLDN22 /// WWC2 (11732394_at) / RFU HLA-DPB1 (11760878_x_at) / Fold change /veh HLA-DPB1 (11760878_x_at) / RFU SPINT1 (11716480_a_at) / Fold change /veh SPINT1 (11716480_a_at) / RFU GAP43 (11754022_s_at) / Fold change /veh GAP43 (11754022_s_at) / RFU A4GNT (11735810_at) / Fold change /veh A4GNT (11735810_at) / RFU PRB3 (11715151_x_at) / Fold change /veh PRB3 (11715151_x_at) / RFU TUBB4B (11761932_at) / Fold change /veh TUBB4B (11761932_at) / RFU CAPN14 (11732068_a_at) / Fold change /veh CAPN14 (11732068_a_at) / RFU TMCC2 (11721928_a_at) / Fold change /veh TMCC2 (11721928_a_at) / RFU IRGQ (11745062_a_at) / Fold change /veh IRGQ (11745062_a_at) / RFU FAM174B (11720279_a_at) / Fold change /veh FAM174B (11720279_a_at) / RFU TMPRSS4 (11748680_a_at) / Fold change /veh TMPRSS4 (11748680_a_at) / RFU FAM212B (11763350_a_at) / Fold change /veh FAM212B (11763350_a_at) / RFU PLEKHG5 (11743358_a_at) / Fold change /veh PLEKHG5 (11743358_a_at) / RFU ZSCAN30 (11745921_a_at) / Fold change /veh ZSCAN30 (11745921_a_at) / RFU CMKLR1 (11741424_a_at) / Fold change /veh CMKLR1 (11741424_a_at) / RFU LOC101060620 /// MAPK8IP1 (11723275_at) / Fold change /veh LOC101060620 /// MAPK8IP1 (11723275_at) / RFU SPTSSB (11747773_x_at) / Fold change /veh SPTSSB (11747773_x_at) / RFU PRSS12 (11739890_at) / Fold change /veh PRSS12 (11739890_at) / RFU BIN1 (11741810_x_at) / Fold change /veh BIN1 (11741810_x_at) / RFU WNT11 (11732464_a_at) / Fold change /veh WNT11 (11732464_a_at) / RFU C10orf10 (11716521_a_at) / Fold change /veh C10orf10 (11716521_a_at) / RFU C5orf56 (11738089_at) / Fold change /veh C5orf56 (11738089_at) / RFU CYB561 (11721691_x_at) / Fold change /veh CYB561 (11721691_x_at) / RFU ANKRD19P (11752326_a_at) / Fold change /veh ANKRD19P (11752326_a_at) / RFU OR2T12 /// OR2T33 /// OR2T8 (11738714_s_at) / Fold change /veh OR2T12 /// OR2T33 /// OR2T8 (11738714_s_at) / RFU VCAN (11748164_a_at) / Fold change /veh VCAN (11748164_a_at) / RFU JSRP1 (11732532_at) / Fold change /veh JSRP1 (11732532_at) / RFU KRTAP10-11 (11738290_x_at) / Fold change /veh KRTAP10-11 (11738290_x_at) / RFU MYO3A (11730013_a_at) / Fold change /veh MYO3A (11730013_a_at) / RFU EBF3 (11725865_a_at) / Fold change /veh EBF3 (11725865_a_at) / RFU CAMK2N1 (11719241_x_at) / Fold change /veh CAMK2N1 (11719241_x_at) / RFU C5orf56 (11738088_a_at) / Fold change /veh C5orf56 (11738088_a_at) / RFU OLFML3 (11715873_a_at) / Fold change /veh OLFML3 (11715873_a_at) / RFU LOC100653217 /// NTM (11731650_a_at) / Fold change /veh LOC100653217 /// NTM (11731650_a_at) / RFU MAPK11 (11762145_a_at) / Fold change /veh MAPK11 (11762145_a_at) / RFU FIZ1 (11724087_x_at) / Fold change /veh FIZ1 (11724087_x_at) / RFU OASL (11726364_x_at) / Fold change /veh OASL (11726364_x_at) / RFU SOX15 (11748057_x_at) / Fold change /veh SOX15 (11748057_x_at) / RFU CD79A (11719716_a_at) / Fold change /veh CD79A (11719716_a_at) / RFU HIST1H1D (11736915_at) / Fold change /veh HIST1H1D (11736915_at) / RFU CASKIN2 (11723855_a_at) / Fold change /veh CASKIN2 (11723855_a_at) / RFU LOC730098 (11760151_x_at) / Fold change /veh LOC730098 (11760151_x_at) / RFU OR4N2 (11742367_at) / Fold change /veh OR4N2 (11742367_at) / RFU PRRT2 (11749266_a_at) / Fold change /veh PRRT2 (11749266_a_at) / RFU SNX32 (11753110_a_at) / Fold change /veh SNX32 (11753110_a_at) / RFU CDHR5 (11726645_a_at) / Fold change /veh CDHR5 (11726645_a_at) / RFU RCAN1 (11760418_a_at) / Fold change /veh RCAN1 (11760418_a_at) / RFU FAM167A (11723789_a_at) / Fold change /veh FAM167A (11723789_a_at) / RFU FAM26E (11764081_at) / Fold change /veh FAM26E (11764081_at) / RFU ISYNA1 (11749810_s_at) / Fold change /veh ISYNA1 (11749810_s_at) / RFU ACY1 (11761880_at) / Fold change /veh ACY1 (11761880_at) / RFU 11764098_at / Fold change /veh 11764098_at / RFU SAMD14 (11745864_x_at) / Fold change /veh SAMD14 (11745864_x_at) / RFU NPB (11741838_a_at) / Fold change /veh NPB (11741838_a_at) / RFU TMPRSS6 (11731388_a_at) / Fold change /veh TMPRSS6 (11731388_a_at) / RFU KRTAP10-2 (11738614_at) / Fold change /veh KRTAP10-2 (11738614_at) / RFU ARHGAP8 /// PRR5-ARHGAP8 (11727945_x_at) / Fold change /veh ARHGAP8 /// PRR5-ARHGAP8 (11727945_x_at) / RFU KRTAP5-7 /// NADSYN1 (11734609_at) / Fold change /veh KRTAP5-7 /// NADSYN1 (11734609_at) / RFU RASL12 (11751679_a_at) / Fold change /veh RASL12 (11751679_a_at) / RFU CDKN2B (11736163_a_at) / Fold change /veh CDKN2B (11736163_a_at) / RFU PRF1 (11729649_at) / Fold change /veh PRF1 (11729649_at) / RFU, ZNF638 /// ZNF638-IT1 / Fold change vs veh, ZNF638 /// ZNF638-IT1 / RFU, PANK3 / Fold change vs veh, PANK3 / RFU, SH3YL1 / Fold change vs veh, SH3YL1 / RFU, ZEB2 / Fold change vs veh, ZEB2 / RFU, NRIP1 / Fold change vs veh, NRIP1 / RFU, PTTG1IP / Fold change vs veh, PTTG1IP / RFU, CAPN2 / Fold change vs veh, CAPN2 / RFU, MED14 / Fold change vs veh, MED14 / RFU, SNORA58 / Fold change vs veh, SNORA58 / RFU, C1orf63 / Fold change vs veh, C1orf63 / RFU, LRRFIP1 / Fold change vs veh, LRRFIP1 / RFU, NDUFAF7 / Fold change vs veh, NDUFAF7 / RFU, SLC12A2 / Fold change vs veh, SLC12A2 / RFU, IBTK / Fold change vs veh, IBTK / RFU, ESF1 / Fold change vs veh, ESF1 / Fold change vs veh, TMEM50B / RFU, TAOK1 / Fold change vs veh, TAOK1 / RFU, ACBD3 / Fold change vs veh, ACBD3 / RFU, TMA16 / Fold change vs veh, TMA16 / RFU, RWDD3 / Fold change vs veh, RWDD3 / RFU, BCAT1 / Fold change vs veh, BCAT1 / RFU, EDEM3 / Fold change vs veh, EDEM3 / RFU, TMEM33 / Fold change vs veh, TMEM33 / RFU, WDR75 / Fold change vs veh, WDR75 / RFU, AHCTF1 / Fold change vs veh, AHCTF1 / RFU, TFRC / Fold change vs veh, TFRC / RFU, ZDHHC17 / Fold change vs veh, ZDHHC17 / RFU, NOM1 / Fold change vs veh, NOM1 / RFU, ARL8B / Fold change vs veh, ARL8B / RFU, ZBTB11 / Fold change vs veh, ZBTB11 / RFU, TAMM41 / Fold change vs veh, TAMM41 / RFU, KIAA1704 /// LOC100996395 / Fold change vs veh, KIAA1704 /// LOC100996395 / RFU, ING1 / Fold change vs veh, ING1 / RFU, TRMT61B / Fold change vs veh, TRMT61B / RFU, FUBP3 / Fold change vs veh, FUBP3 / RFU, TP53 / Fold change vs veh, TP53 / RFU, TNKS2 / Fold change vs veh, TNKS2 / RFU, ZFP14 / Fold change vs veh, ZFP14 / RFU, ACTR2 / Fold change vs veh, ACTR2 / RFU, PPP3R1 / Fold change vs veh, PPP3R1 / RFU, PIK3R1 / Fold change vs veh, PIK3R1 / RFU, HNRNPA1 / Fold change vs veh, HNRNPA1 / RFU, RNF170 / Fold change vs veh, RNF170 / RFU, ZNF28 / Fold change vs veh, ZNF28 / RFU, RNGTT / Fold change vs veh, RNGTT / RFU, OGT / Fold change vs veh, OGT / RFU, BRD1 / Fold change vs veh, BRD1 / RFU, MARS / Fold change vs veh, MARS / RFU, ZNF655 / Fold change vs veh, ZNF655 / RFU, FAHD1 / Fold change vs veh, FAHD1 / RFU, BDP1 / Fold change vs veh, BDP1 / RFU, LRRCC1 / Fold change vs veh, LRRCC1 / RFU, ARID1A / Fold change vs veh, ARID1A / RFU, ZNF146 / Fold change vs veh, ZNF146 / RFU, ZNF330 / Fold change vs veh, ZNF330 / RFU, GPN3 / Fold change vs veh, GPN3 / RFU, C9orf123 / Fold change vs veh, C9orf123 / RFU, N4BP2L2 / Fold change vs veh, N4BP2L2 / RFU, ARFIP1 / Fold change vs veh, ARFIP1 / RFU, FAM179B / Fold change vs veh, FAM179B / RFU, BCL10 / Fold change vs veh, BCL10 / RFU, UHRF1BP1L / Fold change vs veh, UHRF1BP1L / RFU, BET1 / Fold change vs veh, BET1 / RFU, CNOT2 / Fold change vs veh, CNOT2 / RFU, ZNF268 / Fold change vs veh, ZNF268 / Fold change vs veh, ZNF507 / RFU, DGCR2 / Fold change vs veh, DGCR2 / RFU, WDSUB1 / Fold change vs veh, WDSUB1 / Fold change vs veh, HSP90B1 /// MIR3652 / RFU, ADSS / Fold change vs veh, ADSS / RFU, GK / Fold change vs veh, GK / RFU, ZNF148 / Fold change vs veh, ZNF148 / RFU, TAF9 / Fold change vs veh, TAF9 / RFU, SLC1A5 / Fold change vs veh, SLC1A5 / RFU, SLMO2 / Fold change vs veh, SLMO2 / RFU, ABCC4 / Fold change vs veh, ABCC4 / RFU, LOC101060439 /// RAP1B / Fold change vs veh, LOC101060439 /// RAP1B / RFU, RFX7 / Fold change vs veh, RFX7 / RFU, GTPBP10 / Fold change vs veh, GTPBP10 / RFU, CNEP1R1 / Fold change vs veh, CNEP1R1 / RFU, BIVM-ERCC5 /// ERCC5 / Fold change vs veh, BIVM-ERCC5 /// ERCC5 / RFU, ILF3 / Fold change vs veh, ILF3 / RFU 11762660_at / Fold change /veh 11762660_at / RFU VCAN (11757783_s_at) / Fold change /veh VCAN (11757783_s_at) / RFU DDX43 (11728927_at) / Fold change /veh DDX43 (11728927_at) / RFU KRT8 (11758188_x_at) / Fold change /veh KRT8 (11758188_x_at) / RFU NKD1 (11759106_at) / Fold change /veh NKD1 (11759106_at) / RFU SRD5A1 (11742802_a_at) / Fold change /veh SRD5A1 (11742802_a_at) / RFU TPSAB1 /// TPSB2 (11721975_s_at) / Fold change /veh TPSAB1 /// TPSB2 (11721975_s_at) / RFU GSTM3 (11746129_a_at) / Fold change /veh GSTM3 (11746129_a_at) / RFU IL23R (11737362_x_at) / Fold change /veh IL23R (11737362_x_at) / RFU TMEM51 (11727254_a_at) / Fold change /veh TMEM51 (11727254_a_at) / RFU PIWIL2 (11732686_x_at) / Fold change /veh PIWIL2 (11732686_x_at) / RFU ORM1 (11744905_x_at) / Fold change /veh ORM1 (11744905_x_at) / RFU CCDC152 (11743942_at) / Fold change /veh CCDC152 (11743942_at) / RFU ECM1 (11717891_a_at) / Fold change /veh ECM1 (11717891_a_at) / RFU IL23R (11748794_a_at) / Fold change /veh IL23R (11748794_a_at) / RFU TNFAIP8L3 (11732012_x_at) / Fold change /veh TNFAIP8L3 (11732012_x_at) / RFU MBOAT4 (11741988_at) / Fold change /veh MBOAT4 (11741988_at) / RFU 11764193_at / Fold change /veh 11764193_at / RFU TMEM53 (11763286_at) / Fold change /veh TMEM53 (11763286_at) / RFU MAGEB2 (11727129_at) / Fold change /veh MAGEB2 (11727129_at) / RFU TMEM200A (11744735_a_at) / Fold change /veh TMEM200A (11744735_a_at) / RFU CCDC152 (11751479_a_at) / Fold change /veh CCDC152 (11751479_a_at) / RFU FAM211A (11726209_a_at) / Fold change /veh FAM211A (11726209_a_at) / RFU RGS16 (11746705_a_at) / Fold change /veh RGS16 (11746705_a_at) / RFU VCAN (11755009_s_at) / Fold change /veh VCAN (11755009_s_at) / RFU RHOB (11743442_s_at) / Fold change /veh RHOB (11743442_s_at) / RFU RGS16 (11720943_a_at) / Fold change /veh RGS16 (11720943_a_at) / RFU RGS16 (11720944_at) / Fold change /veh RGS16 (11720944_at) / RFU, VPS4B / Fold change vs veh, VPS4B / RFU, CREB1 / Fold change vs veh, CREB1 / RFU, DNAJC13 / Fold change vs veh, DNAJC13 / RFU, GNAQ / Fold change vs veh, GNAQ / RFU, CDK5R1 / Fold change vs veh, CDK5R1 / RFU, ZRANB3 / Fold change vs veh, ZRANB3 / RFU, CUL4A / Fold change vs veh, CUL4A / RFU, CCNY / Fold change vs veh, CCNY / RFU, UFL1 / Fold change vs veh, UFL1 / RFU, COG3 / Fold change vs veh, COG3 / RFU, DIAPH2 / Fold change vs veh, DIAPH2 / RFU, SKA2 / Fold change vs veh, SKA2 / RFU, AFF3 / Fold change vs veh, AFF3 / RFU, LMF1 / Fold change vs veh, LMF1 / RFU, IPO11 / Fold change vs veh, IPO11 / RFU, DFFB / Fold change vs veh, DFFB / RFU, FOXP1 / Fold change vs veh, FOXP1 / RFU, CARD8 / Fold change vs veh, CARD8 / RFU, STRN3 / Fold change vs veh, STRN3 / RFU, ADK / Fold change vs veh, ADK / RFU, RASSF2 / Fold change vs veh, RASSF2 / RFU, WIPF1 / Fold change vs veh, WIPF1 / RFU, LARP1B / Fold change vs veh, LARP1B / RFU, RASA1 / Fold change vs veh, RASA1 / RFU, RB1 / Fold change vs veh, RB1 / RFU, PPFIA1 / Fold change vs veh, PPFIA1 / RFU, MAT2A / Fold change vs veh, MAT2A / RFU, CCT5 / Fold change vs veh, CCT5 / RFU, WDR92 / Fold change vs veh, WDR92 / RFU, CUX1 / Fold change vs veh, CUX1 / RFU, TTC7A / Fold change vs veh, TTC7A / RFU, TMEM135 / Fold change vs veh, TMEM135 / RFU, DEPTOR / Fold change vs veh, DEPTOR / RFU, CPM / Fold change vs veh, CPM / RFU, DNAJB6 / Fold change vs veh, DNAJB6 / RFU, CACNA2D3 / Fold change vs veh, CACNA2D3 / RFU, DTX4 / Fold change vs veh, DTX4 / RFU, TFCP2 / Fold change vs veh, TFCP2 / RFU, GMCL1 /// GMCL1P1 / Fold change vs veh, GMCL1 /// GMCL1P1 / RFU, AEBP2 / Fold change vs veh, AEBP2 / RFU, SNHG1 /// SNORD22 /// SNORD25 /// SNORD26 /// SNORD27 /// SNORD28 /// SNORD29 /// SNORD31 / Fold change vs veh, SNHG1 /// SNORD22 /// SNORD25 /// SNORD26 /// SNORD27 /// SNORD28 /// SNORD29 /// SNORD31 / Fold change (Aza/veh), C12orf56 (ProbeSet 11735607_a_at) / Fold change (ACY-1035/veh), C12orf56 (ProbeSet 11735607_a_at) / Fold change (Aza/veh), FGFR1OP (ProbeSet 11751329_s_at) / Fold change (ACY-1035/veh), FGFR1OP (ProbeSet 11751329_s_at) / Fold change (Aza/veh), VPS36 (ProbeSet 11739960_a_at) / Fold change (ACY-1035/veh), VPS36 (ProbeSet 11739960_a_at) / RFU SYPL1 (11715823_x_at) / Fold change /veh SYPL1 (11715823_x_at) / RFU IGFBP7 (11715501_s_at) / Fold change /veh IGFBP7 (11715501_s_at) / RFU REEP3 (11722064_at) / Fold change /veh REEP3 (11722064_at) / RFU IGLL1 (11728026_x_at) / Fold change /veh IGLL1 (11728026_x_at): dose or concentration left out as unconfirmed
Conditions: ProbeSet 11732281_s_at; LIST D

Nc1ccc(-c2cccs2)cc1NC(=O)c1ccc2c(c1)cc(C1CC1)n2CCN1CCOCC1 [ACY-1035]
Fold change vs veh, FOXP1: 0.88
